Data on 24 compounds can be found in patent US7531545B2, “2-amino-3,4-dihydro-pyrido[3,4-d]pyrimidine derivatives useful as inhibitors of β-secretase (BACE)” (Janssen Pharmaceutica, N.V., priority 2005, dated 2009).

The target of this assay is T1, β-secretase (BACE) (Homo sapiens, UniProt P56817).
T1 construct: purchased Panvera
Briefly: BACE FS1 Assay (% Inhibition and Ki). As to conditions: FS1 substrate; for inhibition at 0.3 µM: read-out: % Inhibition (FS) @ 0.3 μM; for inhibition at 1 µM: read-out: % Inhibition (FS) @ 1 μM; for inhibition at 3 µM: read-out: % Inhibition (FS) @ 3 μM. In kind it is biochemical. The protocol: BACE FS1 Assay (% Inhibition and Ki)
The following reagents were used in this assay: sodium acetate, PEG8000 (Sigma), DMSO, HEPES, FS1 substrate [R(AedensE)[…]-(DabcylK)R], β-secretase (BACE) (Panvera), and 96-well plate (HE microplate, Molecular Devices).
The following assay buffers were prepared and used in this assay: (1) enzyme assay buffer (0.05 M sodium acetate, pH5, 0.1% PEG8000 (w/v)), (2) substrate assay buffer (0.05 M sodium acetate, pH5), and (3) compound vehicle (30% DMSO in 50 mM HEPES, pH 7.4).
The FS1-substrate stock solution was prepared in DMSO as a 10 mg/mL solution. The FS1-substrate working solution was prepared by diluting the 10 mg/mL stock solution with substrate assay buffer to a final concentration of 300 μg/mL. The β-secretase (BACE) working solution was prepared by diluting a 0.83 mg/mL BACE stock solution with enzyme assay buffer to a final concentration of 4 μg/mL.
Test compounds were dissolved in DMSO to 10 mM. Compounds were further diluted in vehicle to various concentrations in the range of 405 μM to 4.05 μM (13.5× final compound concentration in screening plate).
The screening procedure for this assay was as follows: 15 μL of BACE working solution was pipetted into each well of a 96-well plate. To each well was then pipetted 2 μL of test compound at the selected concentration. Test compound and BACE were then mixed with a pipettor and incubated for 20 min at room temperature. To each well was then added 10 μL of the FS1 substrate working solution. The plates were then incubated for 1 hour at room temperature. The fluorescence for each well was then measured on an LJL analyst (Ex 360 nm/Em 530 nm).
The procedure for the blank was as follows. 15 μL of assay buffer was pipetted into each well to be used as a blank control. To each well was then added 2 μL of vehicle and […] of FS1-substrate working solution. The plates were then incubated for 1 hour at room temperature. The fluorescence was measured on an LJL analyst (Ex 360 nm/Em 530 nm).
The procedure for the positive control was as follows: 15 μL of BACE working solution was pipetted into each well to be used as a positive control. To each well was then pipetted 2 μL of vehicle. Vehicle and BACE were then mixed with a pipettor and incubated for 20 min at room temperature. To each well was then added 10 μL of the FS1 substrate working solution. The plates were then incubated for 1 hour at room temperature. The fluorescence (F1) was then measured on an LJL analyst (Ex 360 nm/Em 530 nm).
For test compounds, % inhibition was determined at each concentration as follows:
% Inhibition values of less than 30% were indistinguishable from control are listed as ≦30% in Table 18, below.
For test compounds, measured at multiple concentrations, the measured T0 and T60 values were used to calculate an IC50 value using Graphpad Software (or PIR). Ki inhibition was determined as follows: For each compound concentration and positive control, rate of cleavage of substrate (Vi, where i=compound concentration in μM) was determined as Δ Fluorescence/Δ time (min). Cleavage rates (Vi) were plotted as a function of inhibitor concentration in μM [I]. […]

Counter-ions that a name gives are not always drawn.

T1 sequence (P56817 46-501): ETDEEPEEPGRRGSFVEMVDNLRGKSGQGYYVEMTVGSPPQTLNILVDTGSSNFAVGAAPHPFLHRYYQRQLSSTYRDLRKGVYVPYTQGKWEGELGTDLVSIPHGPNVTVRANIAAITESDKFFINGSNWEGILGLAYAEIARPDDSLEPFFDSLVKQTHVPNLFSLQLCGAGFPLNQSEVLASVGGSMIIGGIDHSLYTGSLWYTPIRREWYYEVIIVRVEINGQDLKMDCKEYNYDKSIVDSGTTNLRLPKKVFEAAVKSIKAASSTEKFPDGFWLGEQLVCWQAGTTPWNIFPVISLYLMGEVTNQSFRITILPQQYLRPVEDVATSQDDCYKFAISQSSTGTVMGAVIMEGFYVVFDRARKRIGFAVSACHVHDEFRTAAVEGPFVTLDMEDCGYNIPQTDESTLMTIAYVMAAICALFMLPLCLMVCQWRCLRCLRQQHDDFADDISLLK

What is called inhibition is the relative decrease from the control value, in per cent. As a reminder, the Ki is the equilibrium dissociation constant of an inhibitor or competing ligand from its target. A low value points to higher affinity. The compound `CC(C)[C@H](CCC(=O)N(C)[C@H]1CC[C@@H](C(=O)O)CC1)N1Cc2cc(Oc3ccccc3)ncc2N=C1N` [Compound 43] returned a Ki of 0.016 µM. The inhibition at 0.3 µM (0.3 μM test compound) amounted to 110%. The inhibition at 1 µM (1 μM test compound) was 107%. For the same compound, the inhibition at 3 µM (3 μM test compound) was 115%.
`CN(C(=O)CCC(CCO)N1Cc2cc(Oc3ccccc3)ncc2N=C1N)C1CCCCC1` (stereo not drawn) [Compound 22]: the affinity corresponds to a Ki of 0.173 µM. Also, the inhibition at 0.3 µM (0.3 μM test compound) was found to be 0%. Moreover, the inhibition at 1 µM (1 μM test compound) was 61%. The inhibition at 3 µM (3 μM test compound) was found to be 93%.
Compound `CC(C)[C@H](CO)NC(=O)CC[C@@H](C(C)C)N1Cc2cc(Oc3ccccc3)ncc2N=C1N` [Compound 36] returned a Ki of 0.021 µM. Moreover, the “% Inhibition (FS) @ 0.3 μM” value (0.3 μM test compound, 0.3 µM) is reported as 114%. For the same compound, the “% Inhibition (FS) @ 1 μM” value (1 μM test compound, 1 µM) came to 112%. Also, under “3 μM test compound, 3 µM”, the “% Inhibition (FS) @ 3 μM” value worked out at 114%.
Turning to `CC(C)C(CCC(=O)N(CCO)C1CCC(c2nnn[nH]2)CC1)N1Cc2cc(Oc3ccccc3)ncc2N=C1N` (stereo not drawn) [Compound 12], the inhibition constant (Ki) is 0.503 µM. Under “0.3 μM test compound”, the inhibition at 0.3 µM was found to be 30%. The inhibition at 1 µM (1 μM test compound) was 63%. Moreover, the inhibition at 3 µM (3 μM test compound) stood at 95%.
The matching figures for `CC(C)[C@H](CCC(=O)N(CCCO)C1CCCCC1)N1Cc2cc(Oc3ccccc3)ncc2N=C1N` [Compound 19]: 0.055 µM, 88%, 103% and 104%.
For `COC(=O)[C@H](COCc1ccccc1)NC(=O)CC[C@@H](C(C)C)N1Cc2cc(Oc3ccccc3)ncc2N=C1N` [Compound 45, 2-[4-(2-Amino-6-phenoxy-4H-pyrido[3,4-d]pyrimidin-3-yl)-5-methyl-(S)-hexanoylamino]-3-(S)-benzyloxy-propionic acid methyl ester hydrobromide salt] the same measures were 0.127 µM, 82%, 91% and 110%.
The matching figures for `NC1=Nc2cnc(Oc3ccccc3)cc2CN1CCCC(=O)NC1C2CC3CC(C2)CC1C3` (stereo not drawn) [Compound 6]: 0.021 µM, 122%, 139% and 138%.
Turning to `COC(=O)[C@H]1CC[C@H](N(C)C(=O)CC[C@@H](C2CCOCC2)N2Cc3cc(Oc4ccccc4)ncc3N=C2N)CC1` [Compound 34], the Ki was determined as 0.032 µM. The inhibition at 0.3 µM (0.3 μM test compound) turned out to be 96%. In addition, the inhibition at 1 µM (1 μM test compound) was found to be 106%. Under “3 μM test compound”, the inhibition at 3 µM was 115%.
For `CN(C(=O)CC[C@@H](C1CCOCC1)N1Cc2cc(Oc3ccccc3)ncc2N=C1N)[C@H]1CC[C@@H](C(=O)O)CC1` [Compound 33] the same measures were 0.005 µM, 114%, 112% and 113%.
In the case of `COCCC(CCC(=O)N(C)C1CCCCC1)N1Cc2cc(Oc3ccccc3)ncc2N=C1N` (stereo not drawn) [Compound 23], the Ki amounted to 0.151 µM. Moreover, the inhibition at 0.3 µM (0.3 μM test compound) is 32%. For the setting “1 μM test compound”, the inhibition at 1 µM came out at 86%. Besides, the inhibition at 3 µM (3 μM test compound) came to 103%.
The matching figures for `CN(C(=O)CC[C@@H](C1CCCCC1)N1Cc2cc(Oc3ccccc3)ncc2N=C1N)C1CCCCC1` [Compound 5]: 0.025 µM, 125%, 131% and 138%.
For `CCOC(=O)C1CCC(N(CCO)C(=O)CCC(C(C)C)N2Cc3cc(Oc4ccccc4)ncc3N=C2N)CC1` (stereo not drawn) [Compound 14] the same measures were 0.241 µM, 11%, 66% and 108%.
Compound `CC(C)C(CCC(=O)N(C)C1CCC(C#N)CC1)N1Cc2cc(Oc3ccccc3)ncc2N=C1N` (stereo not drawn) [Compound 11] yielded a Ki of 0.124 µM. For the same compound, the inhibition at 0.3 µM (0.3 μM test compound) came out at 47%. Also, where the note is “1 μM test compound”, the inhibition at 1 µM came out at 78%. For the same compound, under “3 μM test compound”, the inhibition at 3 µM was 120%.
The matching figures for `CCOC(=O)C1CCC(N(C)C(=O)CCC(C2CCOCC2)N2Cc3cc(Oc4ccccc4)ncc3N=C2N)CC1` (stereo not drawn) [Compound 27]: 0.193 µM, 16%, 96% and 110%.
On to `CC(C)C(CCC(=O)N(CCO)C1CCC(C#N)CC1)N1Cc2cc(Oc3ccccc3)ncc2N=C1N` (stereo not drawn) [Compound 10], for which affinity was put at a Ki of 0.207 µM. Also, the inhibition at 0.3 µM (0.3 μM test compound) worked out at 55%. Besides, for the setting “1 μM test compound”, the inhibition at 1 µM was 80%. In addition, the inhibition at 3 µM (3 μM test compound) was 114%.
For `CC(C)[C@H](CCC(=O)N(CCO)C1CCCCC1)N1Cc2cc(Oc3ccccc3)ncc2N=C1N` [Compound 31] the same measures were 0.008 µM, 129%, 125% and 125%.
The matching figures for `COC(=O)[C@H](COCc1ccccc1)N(C)C(=O)CC[C@@H](C(C)C)N1Cc2cc(Oc3ccccc3)ncc2N=C1N` [Compound 51, 2-{[4-(2-Amino-6-phenoxy-4H-pyrido[3,4-d]pyrimidin-3-yl)-5-methyl-(S)-hexanoyl]-methyl-amino}-3-(S)-benzyloxy-propionic acid methyl ester trifluoroacetate salt]: 0.014 µM, 114%, 118% and 118%.
The matching figures for `CC(C)[C@H](CCC(=O)N(C)C1CCC(c2nnn[nH]2)CC1)N1Cc2cc(Oc3ccccc3)ncc2N=C1N` (stereo partly drawn) [Compound 13, 4-(S)-(2-Amino-6-phenoxy-4H-pyrido[3,4-d]pyrimidin-3-yl)-5-methyl-hexanoic acid methyl-[4-(1H-tetrazol-5-yl)-cyclohexyl]-amide]: 0.517 µM, 30%, 63% and 87%.
The compound `CC(C)[C@H](CCC(=O)N[C@@H](COCc1ccccc1)C(=O)O)N1Cc2cc(Oc3ccccc3)ncc2N=C1N` [Compound 47, 2-[4-(2-Amino-6-phenoxy-4H-pyrido[3,4-d]pyrimidin-3-yl)-5-methyl-(S)-hexanoylamino]-3-(S)-benzyloxy-propionic acid] came in with a Ki of 0.072 µM. Also, the inhibition at 0.3 µM (0.3 μM test compound) was 109%. Where the note is “1 μM test compound”, the inhibition at 1 µM is 109%. Besides, the inhibition at 3 µM (3 μM test compound) came to 115%.
Take `CC(C)[C@H](CCC(=O)N(CCO)C(C)C)N1Cc2cc(Oc3ccccc3)ncc2N=C1N` [Compound 21]: the Ki was 0.074 µM. For the same compound, the inhibition at 0.3 µM (0.3 μM test compound) was determined as 51%. Besides, the inhibition at 1 µM (1 μM test compound) is 83%. For the same compound, the inhibition at 3 µM (3 μM test compound) was determined as 97%.
For `CC(C)OCCC(CCC(=O)N(C)C1CCCCC1)N1Cc2cc(Oc3ccccc3)ncc2N=C1N` (stereo not drawn) [Compound 24] the same measures were 0.234 µM, 40%, 71% and 103%.
For `CN(C(=O)CCC(C1CCCCC1)N1Cc2cc(Oc3ccccc3)ncc2N=C1N)C1CCC(C(=O)O)CC1` (stereo not drawn) [Compound 18] the same measures were 0.017 µM, 119%, 121% and 128%.
For `NC1=Nc2cnc(Oc3ccccc3)cc2CN1[C@@H](CCC(=O)N(CCO)[C@H]1CC[C@@H](C(=O)O)CC1)C1CCCCC1` [Compound 37] the same measures were 0.012 µM, 112%, 111% and 114%.
Compound `COc1ccccc1-c1cc2c(cn1)N=C(N)N([C@@H](CCC(=O)N(C)C1CCCCC1)C1CCCCC1)C2` [Compound 3] registered a Ki of 0.018 µM. Further, the inhibition at 0.3 µM (0.3 μM test compound) stood at 130%. Also, the inhibition at 1 µM (1 μM test compound) was found to be 132%. In addition, under “3 μM test compound”, the inhibition at 3 µM is 139%.
